Measurements published in US20050054680A1, “Agonists and antagonists of 5h3-like receptors of invertebrates as pesticides” (priority 2001, published 2005).
pIC50: −log10 of the molar value. “Also recorded” adds a separate entry of the source. Read-outs that look alike come from different tables or passages of the source.

What was measured:
[1] = system: C. elegans of the Bristol N2 strain; experiment: Automated feeding assay (bead ingestion, pharyngeal pumping); type: in vivo, Caenorhabditis elegans; conditions: for Effect of 0.325 mM compound on serotonin-stimulated (0.325 mM) bead ingestion: 0.325 mM compound plus 0.325 mM serotonin; for Effect of 0.325 mM compound on bead ingestion: no added serotonin
Description: An automated screening assay has been developed and described in the present Applicants' co-pending International patent application No. PCT/AU00/01476 (WO 01/40500). Using the screening assay, twenty novel tropanyl ester compounds as well as tropanyl dichlorobenzoate were screened for nematicidal activity.
The assay used was essentially that described in WO 01/40500 with minor modifications. The protocol was as follows:
(1.) Plate Culture. C. elegans of the Bristol N2 strain (Brenner, 1974) were cultured at room temperature on HMS174 E. coli bacteria (Campbell et al., 1978) spread on a 150 mm diameter petri dish containing enhanced NGM 1.7% (w/v) (Avery and Horvitz, 1990) agar until a good population of adult nematodes was present, but food reserves had not been exhausted.
(2.) The nematodes were collected by washing each plate with 10 mL and then 5 mL of M9 buffer plate and filtering over a 20 μm nylon mesh (Nytal—Catalogue no. BCNY-HDO02-20) to retain adult nematodes. The nematodes from 7-8 of these 150 mm plates were collected together and placed on a 63 μm mesh filter (Nytal—product code PA-25-43) and washed with 200-250 mL of M9 buffer or MilliQ water. This procedure allows the passage of nematodes whilst retaining larger debris. Finally the nematodes were collected over a 20 μm mesh.
(3.) Adult nematodes were collected from the mesh using a pasteur pipette and allowed to settle in an eppendorf tube at 1×g for 10 minutes. This packed volume was used to calculate quantities of nematodes for experiments and assays, although nematodes were resuspended in 2-10 volumes of M9 buffer for transfer. Quantitative transfers of nematodes were performed using a Gilson Pipetman P200 or equivalent and a yellow tip with 5 mm cut off the sharp end.
(4.) Assays were performed in 24 well tissue-lture clusters (Nunc multidish). The final assay volume was 230 μL comprising the following sequential additions: • (i) M9 buffer—sufficient to bring the final volume to 230 μL • ([…]) Any other pharmacological agents—≦1.5 μL of drug in DMSO (or water) • (iv) Nematodes—150 μL of a 10% (v/v) stock in M9 • (v) Fluorescent beads—23 μL of a 1% w/v solution in M9.
Where serotonin or other pharmacological agents were omitted, the volume was adjusted with M9 buffer. Control experiments included 1.5 μL of DMSO except in the case of ondansetron, which was added from an aqueous stock.
The fluorescent beads were 1.30 μm uniformly dyed microsphere beads with a hydrophilic surface-coating. The fluorescence excitation maximum was 420 nm and the emission maximum was 485 nm (catalogue code FC04F, carboxylate-modified polystyrene/polyvinyl copolymer, manufactured and supplied by Bangs Laboratories, Inc. 9025 Technology Drive, Fishers, INDIANA 46038-2886, USA).
(5.) The nematodes were incubated for 60 minutes after the addition of the fluorescent beads at room temperature (≈21° C.) without shaking. The assay was terminated by the addition of 20 μL of 100 mM sodium azide.
(6.) Two aliquots of 100 μl each were transferred from each well of the 24 well cluster to a pair of wells in a pre-blocked mesh-bottomed plate (see below for details of the mesh-bottomed plate) and the buffer/bead suspension was immediately aspirated away through the filter mesh using a Millipore Multiscreen vacuum manifold.
(7.) A total of eight washing steps were performed. Each of the first five washes used 200 μL of 1%(w/v) sodium lauryl sulphate (SDS—Sigma) in M9 buffer. The third and fifth washes involved pipetting the solution up and down in the wells of the plate ten times each wash. The SDS washes were followed by three washes with 200 μL of M9 buffer only. At the end of each washing step, solutions were aspirated away through the mesh using a Millipore Multiscreen vacuum manifold. […]

nematode C. elegans = conditions: cited from earlier work
[2] = in the presence of 1 mM serotonin, estimated from log dose response curves (FIG. 2)

Compound	Effect of 0.325 mM compound on serotonin-stimulated (0.325 mM) bead ingestion [1]	Effect of 0.325 mM compound on bead ingestion [1]	other results
CN1[C@@H]2CC[C@H]1CC(OC(=O)c1cccc(Cl)c1)C2 (stereo partly drawn) [DCP-45224 (4), 3-chloro-benzoic acid tropan-3-yl ester]	strongly reversed; also recorded: reverses strongly	no effect	IC50 (inhibitory concentration 50%) for bead ingestion [1, 2]: impossible to estimate
COC(=O)C12C3C4C1C1C2C3C41C(=O)OC1C[C@H]2CC[C@@H](C1)N2C (stereo partly drawn) [DCP-45232 (12), cubane-1,4-dicarboxylic acid methyl ester tropan-3-yl ester]	–	no effect	Effect of 0.325 mM compound on serotonin-stimulated (0.325 mM) bead ingestion ([1]; observed with an unpurified mixture): reverses marginally^1
CN1[C@@H]2CC[C@H]1CC(OC(=O)c1cccc(CCl)c1)C2 (stereo partly drawn) [DCP-45223 (3), 3-chloromethyl-benzoic acid tropan-3-yl ester]	no effect	no effect	–
CN1[C@@H]2CC[C@H]1CC(OC(=O)C1CC1)C2 (stereo partly drawn) [DCP-45233 (13), cyclopropanecarboxylic acid tropan-3-yl ester]	potentiates marginally	no effect	–
COC(=O)[C@H]1CC[C@H](C(=O)OC2C[C@H]3CC[C@@H](C2)N3C)CC1 (relative stereo) [DCP-45235 (15), trans-cyclohexane-1,4-dicarboxylic acid methyl ester tropan-3-yl ester]	no effect/reverses	no effect	–
COC(=O)c1ccc(C(=O)OC2C[C@H]3CC[C@@H](C2)N3C)cc1 (stereo partly drawn) [DCP-45236 (16), terephthalic acid methyl ester tropan-3-yl ester]	no effect	no effect	–
CN1[C@@H]2CC[C@H]1CC(OC(=O)c1ccc(Cl)cc1)C2 (stereo partly drawn) [DCP-45225 (5), 4-chloro-benzoic acid tropan-3-yl ester]	no effect	no effect	–
CN1[C@@H]2CC[C@H]1CC(OC(=O)c1ccccc1Cl)C2 (stereo partly drawn) [DCP-45222 (2), 2-chloro-benzoic acid tropan-3-yl ester]	no effect	no effect	–
CN1[C@@H]2CC[C@H]1CC(OC(=O)Cc1ccccc1)C2 (stereo partly drawn) [DCP-45231 (11), phenyl-acetic acid tropan-3-yl ester]	reverses marginally	inhibits	–
Cc1[nH]c2ccc(O)cc2c1CCN.Cl [2-methyl-5-hydroxytryptamine, 2-methyl-5-hydroxytryptamine hydrochloride]	–	–	Effect on locomotion (nematode C. elegans; 3 mM): did not inhibit locomotion; Effect on pharyngeal pumping (nematode C. elegans; 3 mM): strongly stimulated; Effect on pharyngeal pumping (nematode C. elegans; as summarised in the background, no concentration given): strongly and specifically stimulated
CN1[C@@H]2CC[C@H]1CC(OC(=O)c1ccc(Cl)c(Cl)c1)C2 (stereo partly drawn) [DCP-45228 (8), 3,4-dichloro-benzoic acid tropan-3-yl ester]	strongly reversed; also recorded: reverses strongly	reduced; also recorded: inhibits	Implied IC50 without serotonin (extrapolated from IC50 ratio, not measured) ([1]; Caenorhabditis elegans, in the absence of added serotonin, implied from the tropanyl dichlorobenzoate IC50 ratio with and without serotonin, read-out: IC50 and therefore chronic EC50 implied from differential factor): ~6 µM
CN1[C@@H]2CC[C@H]1CC(OC(=O)C1CCC1)C2 (stereo partly drawn) [DCP-45234 (14), cyclobutanecarboxylic acid tropan-3-yl ester]	no effect	no effect	–
CN1[C@@H]2CC[C@H]1CC(OC(=O)c1ccccc1)C2 (stereo partly drawn) [DCP-45221 (1), benzoic acid tropan-3-yl ester]	potentiates marginally	stimulates marginally	–
CN1[C@@H]2CC[C@H]1CC(OC(=O)c1ccccc1F)C2 (stereo partly drawn) [DCP-45229 (9), 2-fluoro-benzoic acid tropan-3-yl ester]	strongly reversed; also recorded: reverses marginally	no effect	Anomalous activity in dose response for bead ingestion ([1]; in the presence of 1 mM serotonin, at lower doses): very strong stimulatory effects; IC50 (inhibitory concentration 50%) for bead ingestion [1, 2]: impossible to estimate
CN1[C@@H]2CC[C@H]1CC(OC(=O)c1c(F)cccc1F)C2 (stereo partly drawn) [DCP-45227 (7), 2,6-difluoro-benzoic acid tropan-3-yl ester]	reverses marginally	no effect	–
COC(=O)c1ccccc1C(=O)OC1C[C@H]2CC[C@@H](C1)N2C (stereo partly drawn) [DCP-45238 (18), phthalic acid methyl ester tropan-3-yl ester]	strongly reversed; also recorded: reverses markedly	no effect	–
CN1[C@@H]2CC[C@H]1CC(OC(=O)c1cc(F)ccc1F)C2 (stereo partly drawn) [DCP-45226 (6), 2,5-difluoro-benzoic acid tropan-3-yl ester]	reverses marginally	no effect	–
COC(=O)c1cccc(C(=O)OC2C[C@H]3CC[C@@H](C2)N3C)c1 (stereo partly drawn) [DCP-45237 (17), isophthalic acid methyl ester tropan-3-yl ester]	no effect	no effect	–
COC(=O)c1cncc(C(=O)OC2C[C@H]3CC[C@@H](C2)N3C)c1 (stereo partly drawn) [DCP-45239 (19), pyridine-3,5-dicarboxylic acid methyl ester tropan-3-yl ester]	potentiates marginally	no effect	–
CC(Oc1ccccc1)C(=O)OC1C[C@H]2CC[C@@H](C1)N2C (stereo partly drawn) [DCP-45230 (10), 2-phenoxy-propionic acid tropan-3-yl ester]	reverses marginally	inhibits	–
CN1[C@@H]2CC[C@H]1CC(OC(=O)c1c[nH]c3ccccc13)C2 (stereo partly drawn) [DCP-45240 (20), 1H-indole-3-carboxylic acid tropan-3-yl ester]	reverses markedly	no effect	pIC50 ([1]; Caenorhabditis elegans, in the presence of 1 mM serotonin, estimated from log dose response curves (FIG. 2), read-out: IC50 (inhibitory concentration 50%) for bead ingestion): 3.50
